{"source": "patent EP0084678B1", "about": "“New compound having analgesic, antiinflammatory and mucoregulating activities, process for its production and relative pharmaceutical compositions” (AUSONIA FARMACEUTICI S.r.l., priority 1982, dated 1983)", "key": {"male Wistar rats": {"tested_on": "male Wistar rats", "experiment": "Bronchosecretogogue activity (Mawatari technique)", "type": "in vivo, rat", "conditions": "500 mg/kg/os, FlNa = Sodium fluoresceine", "from_the_text": "The bronchosecretogogue activity has been determined in male Wistar rats by per os administration according to the method of Mawatari [Mawatari H., Kagoshima Daigaku Igaku-Zasshi, 27, 561 (1976)], comparing AFP-696 with carboxymethylcysteine and sobrerol at the doses hereinafter stated."}, "male rabbit": {"tested_on": "male rabbit", "experiment": "Mucosecretolytic activity (technique of Giraldez et al.)", "type": "in vivo", "conditions": "500 mg/kg/os", "from_the_text": "The mucosecretolytic activity has been studied in the male rabbit according to the technique of Giraldez, Grass and Bruseghini (Abstr. Comp. Int. Pharm. N. 1086-Paris 1978), by administration by the oral route, comparing AFP-696 with carboxymethylcysteine and sobrerol at the dose hereinafter stated."}, "[1]": {"tested_on": "cough induced by citric acid aerosol", "experiment": "Anti-cough activity, cough induced by citric acid aerosol", "type": "in vivo, rabbits", "conditions": "cough strokes", "method": "The anti-cough activity of AFP-696 has been assessed after administration by endoperitoneal route (30% in tween) on rabbits of both sexes, weighing […], according to the method of the cough induced by citric acid aerosol administration, and evaluating the mean number of cough strokes in comparison with the same basal values (Boura and coil. - Prog. Brit. Pharmac. Soc. Apr. 1970). As reference standard a group of codeine treated animals at the dose of 12.5 mg/kg has been used."}, "[2]": {"tested_on": "subplantar edema induced by carrageenin", "experiment": "Antiinflammatory activity, subplantar edema by carrageenin", "type": "in vivo", "conditions": "rat; for MEAN LIMB VOLUME AT DIFFERENT HOURS AFTER TREATMENT 0: hour 0; for MEAN LIMB VOLUME AT DIFFERENT HOURS AFTER TREATMENT 1: hour 1; for MEAN LIMB VOLUME AT DIFFERENT HOURS AFTER TREATMENT 2: hour 2; for MEAN LIMB VOLUME AT DIFFERENT HOURS AFTER TREATMENT 3: hour 3; for MEAN LIMB VOLUME AT DIFFERENT HOURS AFTER TREATMENT 4: hour 4; for MEAN LIMB VOLUME AT DIFFERENT HOURS AFTER TREATMENT 5: hour 5; for AREA Absolute value: limb volume over 5 hours", "method": "Tests have been performed on the rat, employing the test of the subplantar edema induced by carrageenin. […] and, for comparison, ASA, have been administered by oral route 30 minutes before carrageenin, at the doses hereinafter stated. After edema induction, the animals of each group have been controlled, every 60 minutes for 5 consecutives hours, in order to point out the evolution of the inflammatory process."}, "gastric mucose": {"tested_on": "gastric mucose", "experiment": "Gastrolesive action", "type": "in vivo", "conditions": "rats fasting since 18 hours, 5 hours 30 minutes after treatment", "method": "Rats fasting since 18 hours have been treated by oral route with AFP-696 and, for comparison, with acetylsalicylic acid, at the doses hereinafter stated. 5 Hours and 30 minutes after treatments, the animals have been sacrificed and the stomach has been withdrawn for gastric mucose examination."}, "[3]": {"tested_on": "writhings by phenylquinone", "experiment": "Analgesic activity, writhings by phenylquinone", "type": "in vivo", "conditions": "mouse; for % Inhibition in comparison with controls: writhings", "method": "The test of writhings by phenylquinone in the mouse has been used. AFP-696 has been administered by oral route at the dose of 500 mg/kg in comparison with acetylsalicylic acid at the dose of […].\nThe two drugs have been administered per os 30 minutes after intraperitoneal injection of phenil- quinone."}, "[4]": {"experiment": "Acute toxicity (Litchfield and Wilcoxon method), mouse", "conditions": "Swiss, in vivo", "from_the_text": "(§1) The acute toxicity has been determined in Swiss mouse and in Wistar rat for different administration routes, according to the method of Litchfield J.T. and Wilcoxon [J. Pharm. Exp. Therap. 96, 99―113, (1949)].\n(§2) The results obtained are reported in the following Table I; from the same it can be pointed out how AFP 696 is endowed with a very low acute toxicity."}, "[5]": {"experiment": "Acute toxicity (Litchfield and Wilcoxon method), rat", "conditions": "Wistar, in vivo", "from_the_text": "as §1, §2"}, "[6]": {"experiment": "Pharmacokinetics, plasma and lung levels by gas chromatography", "type": "in vivo", "conditions": "rats", "method": "Two groups of rats have been treated per os, by gastric tube, with AFP-696 at the dose of 100 mg/kg and acetylsalicylic acid at the dose of 54 mg/kg. At the moment of treatment rats were fasting since 18 hours. Rats have been then sacrificed in groups of 4 at different times: 30 min., 1 h, 2 h, 4 h, 6 h.\nThe concentration both of unchanged products and of their metabolites have been measured by gaschromatography in plasma and in the lung."}, "[7]": {"experiment": "Solubility of the isolated product", "type": "physicochemical", "method": "To 90 g of ASA in 500 ml of benzene, 120 g of thionyl chloride are added. The mixture is refluxed for three hours. At the end, the benzene is evaporated under reduced pressure to dryness. The acetylsalicyclic acid chloride so obtained is dissolved in 500 ml of anhydrous tetrahydrofuran and added with 80 g of pyridine; to this solution 85 g of sobrerol (di-trans form) are added. The reaction is completed after two hours refluxing. At the end the solvent is evaporated under reduced pressure, the residue is washed with water and extracted with ethyl ether. […] Its structure is confirmed by analytical and spectroscopical data: • Elemental analysis: for C19H24O5 (M.W. = 332.39) • calcd. % C = 68.66; H = 7.28 • found % C = 68.79; H = 7.33. • I.R. Spectrum (liquid film; values of absorption bands are expressed in cm^-1): • stretch 0-H 3550-3400 broad bands • stretch C-H aromatics alifatics 3080-2910 • stretch C = O alifat. ester 1780 • stretch C = O aromat. ester 1730 • stretch C = C 1615 • stretch C(= 0)-O acetate 1145 • stretch C(= 0)-0 arilyc 1255 • H' NMR Spectrum (recorded in CDCI3, internal references TMS; values of chemical shifts are expressed in 6): • 1.2 (d, 6H, 2(CH3)); • 1.8 (s, 3H, =C-CH3); • 1.4-2.2 (m, 6H, CH2-CH-CH2, OH mobile); • 2.3 (s, 3H, CO-CH3); • 5.3 (m, 1H, CH―O―CO); • 5.8 (m, 1H, CH=C-CH3); • 7-7.7 (m, 3H aromatics); • 8 (double d, 1H aromatic). […]"}}, "data": [{"molecule": "CC1=CCC(C(C)(C)O)CC1O", "note": "(stereo not drawn) [Sobrerol, 2-methyl-5-(1-hydroxy-1-methyl-ethyl)-2-cyclohexen-1-ol, reference compound]", "values": [{"measurement": "% Increase of FlNa (*) in comparison with controls", "setting": "male Wistar rats", "result": 33.4, "unit": "%"}, {"measurement": "% Increase of secretion in comparison with controls", "setting": "male rabbit", "result": 36.8, "unit": "%"}]}, {"molecule": "COc1ccc2c3c1O[C@H]1[C@@H](O)C=C[C@H]4[C@@H](C2)N(C)CC[C@@]341", "note": "[Codeine, codeine, reference compound]", "values": [{"measurement": "% Inhibition in comparison with controls", "setting": "[1]; 12.5 mg/kg", "result": 76.7, "unit": "%"}]}, {"molecule": "CC(=O)Oc1ccccc1C(=O)O", "note": "[Acetylsalicylic acid, acetylsalicylic acid, reference compound]", "values": [{"measurement": "AREA % Inhibition in comparison with controls", "setting": "[2]; 250 mg/kg os", "result": 33.6, "unit": "%"}, {"measurement": "MEAN LIMB VOLUME AT DIFFERENT HOURS AFTER TREATMENT 0", "setting": "[2]; 250 mg/kg os", "result": 24.3}, {"measurement": "MEAN LIMB VOLUME AT DIFFERENT HOURS AFTER TREATMENT 1", "setting": "[2]; 250 mg/kg os", "result": 27.4}, {"measurement": "MEAN LIMB VOLUME AT DIFFERENT HOURS AFTER TREATMENT 2", "setting": "[2]; 250 mg/kg os", "result": 32.2}, {"measurement": "MEAN LIMB VOLUME AT DIFFERENT HOURS AFTER TREATMENT 3", "setting": "[2]; 250 mg/kg os", "result": 37.8}, {"measurement": "MEAN LIMB VOLUME AT DIFFERENT HOURS AFTER TREATMENT 4", "setting": "[2]; 250 mg/kg os", "result": 38.6}, {"measurement": "MEAN LIMB VOLUME AT DIFFERENT HOURS AFTER TREATMENT 5", "setting": "[2]; 250 mg/kg os", "result": 38.6}, {"measurement": "AREA Absolute value", "setting": "[2]; 250 mg/kg os", "result": 181.28}, {"measurement": "Mean ulcers' size", "setting": "gastric mucose; 100 mg/kg/os", "result": "3.9 ± 1.2", "unit": "mm"}, {"measurement": "Mean No of writhings", "setting": "[3]; 250 mg/kg os", "result": "0.6 ± 0.5"}, {"measurement": "No animals with writhings", "setting": "[3]; 250 mg/kg os", "result": "1/10"}, {"measurement": "% Inhibition in comparison with controls", "setting": "[3]; 250 mg/kg os", "result": 95.3, "unit": "%"}]}, {"molecule": "CC(=O)Oc1ccccc1C(=O)OC1CC(C(C)(C)O)CC=C1C", "note": "(stereo not drawn) [AFP-696, 2-acetoxybenzoate of 2-methyl-5-(1-hydroxy-1-methylethyl)-cyclohexen-2-yl]", "values": [{"measurement": "LD50", "setting": "[4]; ip", "result": 1600, "unit": "mg/kg"}, {"measurement": "LD50", "setting": "[4]; oral, os", "result": 3500, "unit": "mg/kg"}, {"measurement": "LD50", "setting": "[5]; ip", "result": 1950, "unit": "mg/kg"}, {"measurement": "LD50", "setting": "[5]; oral, os", "result": "> 4000", "unit": "mg/kg"}, {"measurement": "% Increase of FlNa (*) in comparison with controls", "setting": "male Wistar rats", "result": 63.6, "unit": "%"}, {"measurement": "% Increase of secretion in comparison with controls", "setting": "male rabbit", "result": 39.5, "unit": "%"}, {"measurement": "AREA % Inhibition in comparison with controls", "setting": "[2]; 500 mg/kg os", "result": 33.0, "unit": "%"}, {"measurement": "MEAN LIMB VOLUME AT DIFFERENT HOURS AFTER TREATMENT 0", "setting": "[2]; 500 mg/kg os", "result": 24.1}, {"measurement": "MEAN LIMB VOLUME AT DIFFERENT HOURS AFTER TREATMENT 1", "setting": "[2]; 500 mg/kg os", "result": 28.1}, {"measurement": "MEAN LIMB VOLUME AT DIFFERENT HOURS AFTER TREATMENT 2", "setting": "[2]; 500 mg/kg os", "result": 31.4}, {"measurement": "MEAN LIMB VOLUME AT DIFFERENT HOURS AFTER TREATMENT 3", "setting": "[2]; 500 mg/kg os", "result": 37.4}, {"measurement": "MEAN LIMB VOLUME AT DIFFERENT HOURS AFTER TREATMENT 4", "setting": "[2]; 500 mg/kg os", "result": 38.1}, {"measurement": "MEAN LIMB VOLUME AT DIFFERENT HOURS AFTER TREATMENT 5", "setting": "[2]; 500 mg/kg os", "result": 38.1}, {"measurement": "AREA Absolute value", "setting": "[2]; 500 mg/kg os", "result": 183.0}, {"measurement": "Mean ulcers' size", "setting": "gastric mucose; 150 mg/kg/os", "result": "0.7 ± 0.4", "unit": "mm"}, {"measurement": "Mean No of writhings", "setting": "[3]; 500 mg/kg os", "result": "1.3 ± 0.9"}, {"measurement": "No animals with writhings", "setting": "[3]; 500 mg/kg os", "result": "3/10"}, {"measurement": "% Inhibition in comparison with controls", "setting": "[3]; 500 mg/kg os", "result": 89.8, "unit": "%"}, {"measurement": "% Inhibition in comparison with controls", "setting": "[1]; 150 mg/kg, endoperitoneal route (30% in tween)", "result": 82.4, "unit": "%"}, {"measurement": "pulmonary levels of salicylic acid", "setting": "[6]; 100 mg/kg per os vs acetylsalicylic acid 54 mg/kg, lung", "result": "higher"}, {"measurement": "plasma levels of acetylsalicylic acid in comparison with the administration of acetylsalicylic acid at equimolar doses", "setting": "[6]; 100 mg/kg per os vs acetylsalicylic acid 54 mg/kg, more marked in the first two hours", "result": "higher"}, {"measurement": "unchanged AFP-696 in plasma", "setting": "[6]; 100 mg/kg per os, at 30 minutes and in some instance also at 1 hour", "result": "found in plasma"}, {"measurement": "solubility in organic solvents", "setting": "[7]; organic solvents", "result": "easily soluble"}, {"measurement": "solubility in water", "setting": "[7]; water", "result": "slightly soluble"}]}]}
